Assays:
[1] = molecular target: T1, bacterially-produced Sestrin2 (Homo sapiens, UniProt P58004); experiment: [3H]-leucine binding to bacterially-produced His-MBP-Sestrin2 on Ni-NTA resin; settings: RagA-RagC heterodimer as control
T1 construct: made in house; host or cells: Escherichia coli BL21 DE3 star
T1 sequence (P58004 1-480): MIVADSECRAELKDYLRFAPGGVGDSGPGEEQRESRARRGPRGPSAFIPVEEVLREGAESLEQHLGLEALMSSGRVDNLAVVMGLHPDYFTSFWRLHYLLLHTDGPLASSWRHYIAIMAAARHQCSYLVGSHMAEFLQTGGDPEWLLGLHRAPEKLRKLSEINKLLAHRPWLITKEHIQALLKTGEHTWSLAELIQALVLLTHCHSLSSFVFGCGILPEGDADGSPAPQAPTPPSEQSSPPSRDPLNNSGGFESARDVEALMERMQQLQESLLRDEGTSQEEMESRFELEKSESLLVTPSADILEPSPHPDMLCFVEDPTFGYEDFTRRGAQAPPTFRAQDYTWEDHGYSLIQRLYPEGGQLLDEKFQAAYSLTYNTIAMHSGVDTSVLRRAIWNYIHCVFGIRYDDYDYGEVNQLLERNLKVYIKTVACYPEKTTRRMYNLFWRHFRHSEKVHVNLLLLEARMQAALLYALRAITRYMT
Procedure: Recombinant Sestrin2 was expressed in Escherichia coli (strain BL21 DE3 star) from the His-MBP-TEV-Sestrin2 in pMAL6H-CSXT plasmid. The bacterial cultures were grown at 30° C. to an optical density of 0.4 at which point the temperature was lowered to 18° C. After 30 minutes at 18° C., the cultures were induced overnight at 18° C. with 0.5 mM IPTG. The cells were subsequently resuspended in lysis buffer with TCEP (50 mM Tris pH 7.4, 200 mM NaCl, 5 mM MgCl2, 0.1% CHAPS, 1 mM TCEP, 200 μM leucine, and protease inhibitor tablets), which was then supplemented with lysozyme and crude DNAse. The cells underwent mechanical homogenization and the lysates were cleared by centrifugation and then loaded onto the Ni-NTA resin. […]
For binding assays performed with bacterially-produced proteins, 23.6 μg His-RagA/RagC, 23.6 μg His-MBP-TEV-Sestrin2, or 73.6 μg His-MBP-TEV-Sestrin2 were diluted into 500 μl lysis buffer (50 mM Tris pH 7.4, 200 mM NaCl, 5 mM MgCl2, 0.1% CHAPS) and incubated with 15 μl compact Ni-NTA resin as previously described. […] The samples were then well mixed with a cut tip and 10 μl of each was loaded into scintillation fluid in triplicate and quantified with a TriCarb® Scintillation Counter. Samples performed in parallel were eluted with lysis buffer+300 mM imidazole and analyzed by SDS-PAGE as described above.

Sestrin1 = experiment: [3H]-leucine binding to FLAG-Sestrin1 immunoprecipitated from HEK-293T cells; set-up: species or system human; settings: FLAG-tagged protein from HEK-293T
Procedure: Four million HEK-293T cells were plated in a 15 cm plate four days prior to the experiment. Each plate yielded the protein for one sample. Forty-eight hours after plating, the cells were transfected via the polyethylenimine method (O. Boussif et al., PNAS (USA), 92:7297-7301 (1995)) with the pRK5-based cDNA expression plasmids indicated in the figures in the following amounts: 5 μgFLAG-Sestrin2; 12 μg of the negative control Rap2A; 5 μg WDR24; 2 μg WDR24 with 4 μg each of HA-Seh1L, HA-Sec13, HA-Mios, and HA-WDR59; 12 […] (CG11299-PD); 12 μgFLAG-Sestrin1.1; 12 μg FLAG-Sestrin1.2; 12 μg FLAG-Sestrin3; 12 μg FLAG-Sestrin2 mutants (L261A, E451A, S190A) and up to 20 μg total DNA with empty-PRK5. Forty-eight hours after transfection cells were lysed as described in Example 1. […]
For the binding assays, two tubes at a time were washed as previously indicated for immunoprecipitations. […] With a cut tip, each sample was mixed well and three 10 μl aliquots were separately quantified using a TriCarb® scintillation counter (PerkinElmer). This process was repeated in pairs for each sample, to ensure similar incubation and wash times for all samples analyzed across different experiments.

binding of radiolabelled leucine to bacterially-produced Sestrin2 [1]: bound to bacterially-produced Sestrin2
Structure (SMILES): CC(C)C[C@H](N)C(=O)O [leucine]
binding of leucine to Sestrin1 (Sestrin1): to a similar extent as Sestrin2

— patent publication US10168338B2, “Methods of identifying modulators of sestrin-gator-2 interaction for modulating mTORC1 activity” (Whitehead Institute for Biomedical Research, priority 2014, dated 2019)
